# In US6673794B2, “Substituted aminomethyl-phenyl-cyclohexane derivatives” (Gruenenthal GmbH, priority 2000, dated 2004):
# Tested on: Male NMRI mice
# Assay: phenylquinone-induced writhing test in mice
# Assay type: in vivo
# Details: Mus musculus, iv, 10 mg/kg i.v., 10 minutes before phenylquinone i.p., writhing counted 5-20 minutes after phenylquinone, read-out: % inhibition of the writhing reactions (10 mg/kg i.v.)
# Description: The antinociceptive activity of the compounds according to the invention was investigated in mice in the phenylquinone-induced writhing test, modified by I.C. Hendershot, J. Forsaith, J. Pharmacol. Exp. Ther. 125, 237-240 (1959). Male NMRI mice weighing 25-30 g were used. Groups of 10 animals per substance dose received 0.3 ml/mouse of a 0.02% aqueous solution of phenylquinone (phenylbenzoquinone, Sigma, Deisenhofen; preparation of the solution with the addition of 5% ethanol and storage in a water bath at 45° C.) administered intraperitoneally 10 minutes after intravenous administration of a compound according to the invention. The animals were placed individually in observation cages. The number of pain-induced stretching movements (so-called writhing reactions, that is straightening of the body with stretching of the hind extremities) was counted by means of a push-button counter for 5-20 minutes after the administration of phenylquinone. Animals which received physiological saline solution i.v. and phenylquinone […]. were also run as a control.
# All substances were tested in the standard dose of 10 mg/kg. The percentage inhibition (% inhibition) of the writhing reactions by a substance was calculated according to the following equation:
# % inhibition=100−(WRtreated animals/WRcontrol×100)
row,Compound,inhibition in vivo at 10 mg/kg [%]
1,"COC(=O)c1cccc(C=C2CCC(CN(C)C)C(c3cccc(OC)c3)C2)c1 (racemic) [Compound 8, rac-trans-E-3-[4-dimethylaminomethyl-3-(3-methoxy-phenyl)-cyclohexylidenemethyl]-benzoic acid methyl ester]",98
2,"COc1cccc([C@@H]2C/C(=C\c3cccc(C(=O)O)c3)CC[C@H]2CN(C)C)c1 (racemic) [Compound 17, rac-trans-Z-3-[4-Dimethylaminomethyl-3-(3-methoxy-phenyl)-cyclohexylidenemethyl]-benzoic acid]",85
3,"COc1cccc([C@@H]2C/C(=C/c3cccc(C(=O)O)c3)CC[C@H]2CN(C)C)c1 (racemic) [Compound 18, rac-trans-E-3-[4-Dimethylaminomethyl-3-(3-methoxy-phenyl)-cyclohexylidenemethyl]-benzoic acid]",100
4,"CN(C)C[C@@H]1CC/C(=C\c2cccc(CO)c2)C[C@H]1c1cccc(O)c1 (racemic) [Compound 19, rac-trans-E-3-[2-dimethylaminomethyl-5-(3-hydroxymethyl-benzylidene)-cyclohexyl]-phenol]",82
5,"CN(C)C[C@@H]1CC/C(=C\c2ccccc2)C[C@H]1c1cccc(O)c1 (racemic) [Compound 20, rac-trans-E-3-(5-benzylidene-2-dimethylaminomethyl-cyclohexyl)-phenol]",84
6,"CN(C)C[C@@H]1CC/C(=C/c2ccccc2)C[C@H]1c1cccc(O)c1 (racemic) [Compound 23, rac-trans-Z-3-(5-Benzylidene-2-dimethylaminomethyl-cyclohexyl)-phenol]",88
7,"CCOC(=O)c1cccc(/C=C2/CC[C@H](CN(C)C)[C@H](c3cccc(OC)c3)C2)c1 (racemic) [Compound 30, rac-cis-Z-3-[4-Dimethylaminomethyl-3-(3-methoxy-phenyl)-cyclohexylidenemethyl]-benzoic acid ethyl ester]",84
8,CCN(CC)C(=O)c1cccc(/C=C2\CCC(CN(C)C)C(c3cccc(OC)c3)C2)c1 (racemic) [Compound 32],100
9,"CCN(CC)C(=O)c1cccc(/C=C2/CC[C@@H](CN(C)C)[C@H](c3cccc(OC)c3)C2)c1 (racemic) [Compound 36, rac-trans-Z-3-[4-Dimethylaminomethyl-3-(3-methoxy-phenyl)-cyclohexylidenemethyl]-N,N-diethyl-benzamide]",100
10,"COc1cccc(C2=C/C(=C\c3cccc(C(=O)O)c3)CCC2CN(C)C)c1 (centres unmarked) [Compound 14, Z-3-[4-Dimethylaminomethyl-3-(3-methoxy-phenyl)-cyclohex-2-enylidenemethyl]-benzoic acid]",94
11,"COc1cccc(C2=C/C(=C/c3cccc(C(=O)O)c3)CCC2CN(C)C)c1 (centres unmarked) [Compound 15, E-3-[4-Dimethylaminomethyl-3-(3-methoxy-phenyl)-cyclohex-2-enylidenemethyl]-benzoic acid]",100
12,"COc1cccc(C2=C/C(=C/c3cccc(CO)c3)CCC2CN(C)C)c1 (centres unmarked) [Compound 16, E-{3-[4-dimethylaminomethyl-3-(3-methoxy-phenyl)-cyclohex-2-enylidenemethyl]-phenyl}-methanol]",98
13,"COc1cccc(C2=C/C(=C/c3cccc(C(=O)OC(C)(C)C)c3)CCC2CN(C)C)c1 (centres unmarked) [Compound 21, E-3-[4-Dimethylaminomethyl-3-(3-methoxy-phenyl)-cyclohex-2-enylidenemethyl]-benzoic acid tert-butyl ester]",79
14,"CN(C)CC1CC/C(=C\c2cccc(CO)c2)C=C1c1cccc(O)c1 (centres unmarked) [Compound 22, E-3-[6-Dimethylaminomethyl-3-(3-hydroxymethyl-benzylidene)-cyclohex-1-enyl]-phenol]",93
15,"CN(C)CC1=C(c2cccc(O)c2)C/C(=C\c2cccc(CO)c2)CC1 [Compound 24, Z-3-[2-dimethylaminomethyl-5-(3-hydroxymethyl-benzylidene)-cyclohex-1-enyl]-phenol]",100
16,"COc1cccc(C2=C/C(=C\c3cccc(CO)c3)CCC2CN(C)C)c1 (centres unmarked) [Compound 25, Z-{3-[4-Dimethylaminomethyl-3-(3-methoxy-phenyl)-cyclohex-2-enylidenemethyl]-phenyl}-methanol]",100
17,"CCOC(=O)c1cccc(/C=C2/C=C(c3cccc(OC)c3)C(CN(C)C)CC2)c1 (centres unmarked) [Compound 33, E-3-[4-Dimethylaminomethyl-3-(3-methoxy-phenyl)-cyclohex-2-enylidenemethyl]-benzoic acid ethyl ester]",90
18,"CCN(CC)C(=O)c1cccc(/C=C2\C=C(c3cccc(OC)c3)C(CN(C)C)CC2)c1 (centres unmarked) [Compound 34, Z-3-[4-Dimethylaminomethyl-3-(3-methoxy-phenyl)-cyclohex-2-enylidenemethyl]-N,N-diethyl-benzamide]",78
19,"COC(=O)c1cccc(/C=C2/C=C(c3cccc(O)c3)C(CN(C)C)CC2)c1 (centres unmarked) [Compound 37, E-3-[4-dimethylaminomethyl-3-(3-hydroxy-phenyl)-cyclohex-2-enylidenemethyl]-benzoic acid methyl ester]",91
20,"COc1cccc(C2=C/C(=C\c3cccc(C(=O)OCC(C)C)c3)CCC2CN(C)C)c1 (centres unmarked) [Compound 39, Z-3-[4-Dimethylaminomethyl-3-(3-methoxy-phenyl)-cyclohex-2-enylidenemethyl]-benzoic acid isobutyl ester]",78
21,"CN(C)CC1CC/C(=C/c2cccc(C(=O)O)c2)C=C1c1cccc(O)c1 (centres unmarked) [Compound 48, Z-3-[4-Dimethylaminomethyl-3-(3-hydroxy-phenyl)-cyclohex-2-enylidenemethyl]-benzoic acid]",98

# Same assay, conditions: mouse writhing test, 10 minutes before phenylquinone i.p., writhing counted 5-20 minutes after phenylquinone
row,Compound,% inhibition of the writhing reactions (10 mg/kg i.v.) [%]
1,"COc1cccc([C@@H]2C/C(=C/c3cccc(C(=O)O)c3)CC[C@@H]2CN(C)C)c1.Cl (racemic) [Compound 26, rac-cis-E-3-[4-Dimethylaminomethyl-3-(3-methoxy-phenyl)-cyclohexylidenemethyl]-benzoic acid]",87
2,"CCN(CC)C(=O)c1cccc(/C=C2\CC[C@H](CN(C)C)[C@H](c3cccc(OC)c3)C2)c1.Cl (racemic) [Compound 35, rac-cis-E-3-[4-Dimethylaminomethyl-3-(3-methoxy-phenyl)-cyclohexylidenemethyl]-N,N-diethyl-benzamide]",100
